What is called Cmax is the highest concentration seen after dosing. As usually defined, the Tmax is the time at which the peak concentration occurs.

Series [1] in a line: Pharmacokinetic study of YCHD components and phase II metabolites in ANIT-induced cholestatic rats (UHPLC-MS/MS, sulfatase enzymolysis). It is filed as in vivo, rat. On the procedure: (§1) To explore the pharmacokinetic properties of YCHD following intragastric administration in rats, a rapid and sensitive method involving the use of UHPLC-MS/MS (Agilent 6460 series, Agilent Technologies, Santa Clara, CA, United States) was developed and validated for the simultaneous quantification of 10 active components of rat plasma. The quantification was conducted in ESI negative ionization mode, and the mass spectrometry conditions were as follows: capillary voltage, 3500 V; gas flow, 12 L/min; nebulizer, 40 psi; gas temperature, 350°C; and delta EMV (-), 400.
(§2) To each 50 μL plasma sample, 10 μL of internal standard solution (paeoniflorin, 1000 ng/mL) and 300 μL of a mixed solution of methanol and acetonitrile (v/v, 1:1; containing 1% formic acid) were added. Subsequently, the solution was vortex mixed for 5 min. After centrifugation at 15,000 rpm for 5 min, the supernatant was transferred completely into a tube, before being evaporated under N2 at 40°C. The residue was then dissolved in 50 μL of 50% methanol–water (v/v, 1:1) through vortexing for 5 min, after centrifugation at 15,000 rpm for 10 min. Finally, 5 μL of the supernatant sample was injected into the UHPLC-MS/MS system for analysis.
The rats were randomly divided into two groups (n = 5 for each group). […] The blood samples were centrifuged at 4000 rpm for 10 min, and the supernatant plasma was harvested. Plasma samples (50 μL) were immediately processed as outlined in Section “Chromatographic and Mass Spectrometry Conditions.”
(§3) Additional plasma samples (50 μL) were enzymatically hydrolyzed with 50 μL of enzyme solution (65.86 mg of sulfatase, dissolved in 2 mL of sodium acetate buffer, pH 5.0) for phase II metabolite quantification, in accordance with our previous study ([Ding et al., 2012]). After being vortex mixed for 5 min, the mixture was incubated at 37°C for 30 min and then returned to room temperature. Subsequently, the samples were processed as outlined in Section “Chromatographic and Mass Spectrometry Conditions” for UHPLC-MS/MS analysis. During routine analysis, each analytical run included six blank plasma samples, a set of calibration samples, a set of QC samples, and unknowns.
(§4) All data are presented as mean ± SD. A one-way analysis of variance was used to compare data between two groups using SPSS (Version 21.0). The differences were considered to be statistically significant when p < 0.05 and highly significant when p < 0.01 or p < 0.001. Pharmacokinetic data analysis was performed using DAS 2.1.1 software (Mathematical Pharmacology Professional Committee of China, Shanghai, China).
The specific contents of the phase II metabolites of these components were detected indirectly by evaluating the content difference of their prototypes in samples after enzymolysis and before enzymolysis
(§5) CG = Ca −[MG × (CGG/MGG + CGe/MGe)]
Ca, CGG, and CGe represent the concentration of genipin, genipin-1-β-D-gentiobioside, and geniposide after enzymolysis of sulfatase, respectively. MG, MGG-, and MGe represent the mass of genipin, genipin-1-β-D-gentiobioside, and geniposide, respectively.

Series [2] can be described thus: Pharmacokinetic study of YCHD components and phase II metabolites in normal rats (UHPLC-MS/MS, sulfatase enzymolysis). In kind it is in vivo, rat. On the procedure: as §1, with “400. A 5 μL extraction sample was injected into the column (Agilent SB-C18 column, 2.1 mm × 50 mm, 1.8 μm) and eluted at 0.4 mL/min with a gradient elution of water (with 0.4% v/v formic acid) (A) and acetonitrile (B) (0–3 min, 5–60% B; 3–5 min, 60–90% B; 5–5.1 min, 90–5% B; and re-equilibration for 3 min).” for “400.”
as §2
The rats were randomly divided into two groups (n = 5 for each group). […] After 24 h, the two groups of rats received a single oral dose of YCHD (12 g/kg). Blood was collected in heparinized tubes at 5, 15, 30, 45, 60, 120, 240, 360, 480, 720, and 1440 min after administration. The blood samples were centrifuged at 4000 rpm for 10 min, and the supernatant plasma was harvested. Plasma samples (50 μL) were immediately processed as outlined in Section “Chromatographic and Mass Spectrometry Conditions.”
as §3, §4
After sulfatase-aided enzymolysis, all the phase II metabolites could transform into their prototypes, including rhein, emodin, genipin, and capillarisin. The specific contents of the phase II metabolites of these components were detected indirectly by evaluating the content difference of their prototypes in samples after enzymolysis and before enzymolysis
as §5
Ca, CGG, and CGe represent the concentration of genipin, genipin-1-β-D-gentiobioside, and geniposide after enzymolysis of sulfatase, respectively. MG, MGG-, and MGe represent the mass of genipin, genipin-1-β-D-gentiobioside, and geniposide, respectively. The pharmacokinetic curves of phase II metabolites are illustrated in Figure 4B.

The mark [3] stands for this setting: Model group (ANIT 50 mg/kg cholestatic rats), single oral YCHD 12 g/kg, plasma.
Setting [4] is: Control group (normal rats), single oral YCHD 12 g/kg, plasma.
The mark [5] stands for this setting: rat, in vivo, Control group (normal rats), single oral YCHD 12 g/kg, plasma.

As to `COC(=O)C1=CO[C@@H](O[C@@H]2O[C@H](CO)[C@@H](O)[C@H](O)[C@H]2O)[C@@H]2C(CO)=CC[C@H]12` [Geniposide], the “AUC(0-∞)” value was 956445.5 ± 420665.9 µg·min/L in series [1] (setting [3]) and 384279.8 ± 184237.0 µg·min/L in series [2] (setting [4]). For the same molecule, the results for the Ka in series [1] (setting [3]) and in series [2] (setting [4]) were 1543.0 ± 592.8 min⁻¹ and 702.9 ± 413.6 min⁻¹, respectively. In addition, the Cmax is 578 ± 59.6 ng/mL in series [1] (rat, in vivo, po, 12 g/kg) and 524 ± 59.4 ng/mL in series [2] (setting [5]). The Tmax in series [1] (rat, in vivo, po, 12 g/kg) was 0.45 h; in series [2] (Sprague Dawley, rat, in vivo, 12 g/kg, in normal and cholestatic rats after oral administration of YCHD), ≤ 0.45 h; in series [2] (setting [5]) it was 0.3 h. Moreover, the CL/F was 45 ± 12 mL/min/kg in series [1] (rat, in vivo, po, 12 g/kg, read-out: CLz/F) and 122 ± 22 mL/min/kg in series [2] (rat, in vivo, Control group (normal rats), single oral YCHD 12 g/kg, plasma, read-out: CLz/F). Further, the MRT inf in series [1] (rat, in vivo, po, 12 g/kg, read-out: MRT (0-∞) (converted)) is 7.5 h; in series [2] (rat, in vivo, Control group (normal rats), single oral YCHD 12 g/kg, plasma, read-out: MRT (0-∞) (converted)), 3.36 h. For the same molecule, the Vd/F in series [1] (rat, in vivo, po, 12 g/kg, read-out: Vz/F) amounted to 22.4 ± 7.5 L/kg; in series [2] (rat, in vivo, Control group (normal rats), single oral YCHD 12 g/kg, plasma, read-out: Vz/F), 21.1 ± 12 L/kg. The half-life is 5.64 ± 0.467 h in series [1] (rat, in vivo, po, 12 g/kg, read-out: t1/2z) and 1.9 ± 0.765 h in series [2] (rat, in vivo, Control group (normal rats), single oral YCHD 12 g/kg, plasma, read-out: t1/2z). The “AUC(0-∞) increased by, cholestatic model rats compared with normal rats” value in series [1] (single oral YCHD 12 g/kg) came out at 148.9%. Besides, in series [1] (single oral YCHD 12 g/kg), the “Cmax increased by, cholestatic model rats compared with normal rats” value is listed as 10.2%. Also, the “in vivo absorption and excretion processes in cholestatic rats (comparison of Ka and Ke)” value in series [1] (versus normal rats, oral YCHD 12 g/kg) is reported as “significantly enhanced”.

Source of the values: PMC5962729 (Frontiers in Pharmacology, 2018).
